From patent US20220378789A1, “METHODS OF ADMINISTERING ELAGOLIX IN ASSOCIATION WITH ARTIFICIAL REPRODUCTIVE TECHNOLOGIES” (priority 2021, published 2022)
Non-standard residues stand in square brackets, D forms with d. Residues, ends and D or L forms follow the SMILES beside them. d(hArg(Et2)) = CCN=C(NCC)NCCCC[C@@H](N)C(=O)O; hArg(Et2) = CCN=C(NCC)NCCCC[C@H](N)C(=O)O; dPhe(4-Cl) = N[C@H](Cc1ccc(Cl)cc1)C(=O)O; d2Nal = N[C@H](Cc1ccc2ccccc2c1)C(=O)O; d3Pal = N[C@H](Cc1cccnc1)C(=O)O

Experiments:
GnRH receptor [1] = biological target: T1, GnRH receptor (Homo sapiens, UniProt P30968); assay: Cohort study of oocyte donors in an assisted reproductive technology cycle: ovulation suppression during ovarian stimulation; type: in vivo; conditions: for premature ovulation: Elagolix 200 mg PO QHS vs Ganirelix 250 mcg SQ QHS, 75 donors per group; for Avg. Peak Estradiol / Avg. Peak LH / Avg. Peak Progesterone / Days of Stimulation / Avg. Matures Oocytes / Avg. Oocytes / Avg. Cum GN Dose: group mean; for Avg. Matures Oocytes: mature oocytes at retrieval; for Avg. Oocytes: oocytes retrieved; for Avg. Cum GN Dose: total gonadotropins consumed per cycle
T1 construct: from tissue; host or cells: anterior pituitary gland of the oocyte donors (in vivo)
T1 sequence (P30968 1-328): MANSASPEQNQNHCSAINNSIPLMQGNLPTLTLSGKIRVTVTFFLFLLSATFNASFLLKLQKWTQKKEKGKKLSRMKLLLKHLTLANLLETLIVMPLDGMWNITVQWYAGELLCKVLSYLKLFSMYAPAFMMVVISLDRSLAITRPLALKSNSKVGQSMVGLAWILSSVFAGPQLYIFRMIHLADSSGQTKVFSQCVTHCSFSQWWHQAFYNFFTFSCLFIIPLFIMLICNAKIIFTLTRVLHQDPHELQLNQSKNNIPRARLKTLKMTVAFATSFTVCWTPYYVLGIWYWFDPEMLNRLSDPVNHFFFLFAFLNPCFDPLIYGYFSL
Experimental: An example of a method of the present disclosure includes a Western IRB approved (WIRB® Protocol #20191163) cohort study of 75 oocyte donors undergoing an assisted reproductive technology cycle receiving Elagolix 200 mg PO QHS for ovulation suppression compared to 75 historical donors given Ganirelix 250 mcg SQ QHS. Ovarian stimulation involved 10 days of oral contraceptive pretreatment. A recombinant FSH (Gonal F) starting dosage was based on donor age, AMH and BMI. 20 U HCG addback was given throughout the cycle with antagonists administered with a lead follicle of greater than 14 mm. […] Secondary outcomes are the number of mature oocytes at oocyte retrieval, the maximum estradiol level, the total amount of gonadotropins consumed, and the number of injections and patient cost.
The study medication was an orally bioavailable GnRH antagonist marketed by ABBVIE under the brand name ORILISSA® (Elagolix). The 200 mg dose was administered orally with once daily dosing.
A study comprised 75 oocyte donors from whom data for 75 assisted reproductive technology cycles over the course of a two-year period was collected. Upon completion of data collection, a treatment group and an age and weight-matched control group were compared and assessed on the basis of demographic data, health history, ovarian reserve, and information regarding their ovarian stimulation cycles using Pearson χ2 and Student's t-tests. The primary outcome—premature ovulation rate—was evaluated using Chi squared tests. The secondary outcomes—number of mature oocytes, the maximum estradiol level, and the total amount of gonadotropins consumed—were compared using Student's t-tests.
Protocol for Oocyte Donation with Elagolix for Ovulation Suppression 1. Prospective donor accepted into FDA-accredited egg donation program after successful completion of screening and the signing of the medical consent forms. 2. Oocyte donor given opportunity to volunteer to participate in the study. Oocyte donor given an IRB approved informed consent document and HIPAA authorization for Oocyte Donation with Elagolix for Ovulation Suppression Protocol. 3. Oocyte donor begins oral contraceptives to lead into ovarian stimulation. 4. Oocyte donor discontinues oral contraceptives after 10 to 14 days of administration. 5. 3 days after discontinuing oral contraceptives, oocyte donor begins daily SQ injections of rFSH with the dose based upon age, follicle stimulating hormone (FSH), antimullerian hormone (AMH) and antral follicular count. 6. On day 4 of rFSH medications, the practitioner obtains an estradiol level from an oocyte donor. The rFSH dose will be adjusted as necessary. 7. At 2 to 3 days intervals of medications, the practitioner obtains an estradiol level and performs a transvaginal ultrasound for oocyte donor; an rFSH dose will be adjusted according to the results of the estradiol level and transvaginal ultrasound. 8. Once a 14 mm lead follicle is noted on the ultrasound, the practitioner administers 20 U per day of SQ hCG along with Elagolix 200 mg PO QD, taken at 10 pm. Elagolix is administered for a minimum of 1 day and a maximum of 6 days. 9. Administration of Elagolix 200 mg PO QD is discontinued 24 hours prior to the ovulatory, GnRH agonist trigger. 10. Ovarian stimulation is continued as outlined until oocyte maturity is reached based on follicular number, follicular size, cycle day and estradiol levels, at which time an ovulatory, GnRH agonist was used to induce ovulation and egg retrieval was performed per protocol. All mature eggs are either fertilized with the intended parent's sperm or cryopreserved for future used in egg donation.

[2] = oral administration; cited from earlier work
GnRH receptor [3] = biological target: T1, GnRH receptor; conditions: cited from earlier work

SMILES	premature ovulation (GnRH receptor [1])	Avg. Peak Estradiol (GnRH receptor [1])	Avg. Peak LH (GnRH receptor [1])	Avg. Peak Progesterone (GnRH receptor [1])	Days of Stimulation (GnRH receptor [1])	Avg. Matures Oocytes (GnRH receptor [1])	Avg. Oocytes (GnRH receptor [1])	Avg. Cum GN Dose (GnRH receptor [1])	estimated half-life (t1/2) [2]	median time of maximum plasma concentration (Tmax) [2]	LH levels (GnRH receptor [3]; 4 hours after administration of a single dose)	time for LH concentrations to rebound to about baseline levels or above (GnRH receptor [3]; after the last dose, all dose levels)	anovulatory concentrations (GnRH receptor [3]; all participants at doses of 100 mg BID or higher, maintained throughout the 7-day study with daily dosing)	estradiol concentration at maximum suppression (GnRH receptor [3]; all participants at doses of 200 mg BID and higher)	estradiol remaining partially suppressed (GnRH receptor [3]; at 24 hours, most groups)	safety profile (GnRH receptor [3]; doses up to 400 mg twice per day (BID))	adverse events (GnRH receptor [3]; healthy premenopausal women)	tolerability (GnRH receptor [3]; healthy premenopausal women)	dose giving maximum inhibition of LH (GnRH receptor [3]; more sustained suppression at higher doses)
CCN=C(NCC)NCCCC[C@H](NC(=O)[C@H](CC(C)C)NC(=O)[C@@H](CCCCNC(=NCC)NCC)NC(=O)[C@H](Cc1ccc(O)cc1)NC(=O)[C@H](CO)NC(=O)[C@@H](Cc1cccnc1)NC(=O)[C@@H](Cc1ccc(Cl)cc1)NC(=O)[C@@H](Cc1ccc2ccccc2c1)NC(C)=O)C(=O)N1CCC[C@H]1C(=O)N[C@H](C)C(N)=O [Ganirelix] (Ac-[d2Nal][dPhe(4-Cl)][d3Pal]SY[d(hArg(Et2))]L[hArg(Et2)]P[dA]-NH2)	no instances of premature ovulation	3764	1.3	2.3	10.06	25.42	30.55	2741	–	–	–	–	–	–	–	–	–	–	–
COc1cccc(-c2c(C)n(Cc3c(F)cccc3C(F)(F)F)c(=O)n(C[C@H](NCCCC(=O)[O-])c3ccccc3)c2=O)c1F.[Na+] [Elagolix, 4-((R)-2-[5-(2-fluoro-3-methoxy-phenyl)-3-(2-fluoro-6-trifluoromethyl-benzyl)-4-methyl-2,6-dioxo-3,6-dihydro-2H-pyrimidin-1-yl]-1-phenyl-ethylamino)-butyric acid sodium salt]	no instances of premature ovulation	3959	0.94	1.9	10.49	24.73	30.31	2855	4 to 6 h	0.5 to 1 h	22-35 % baseline	24 to 48 h	Anovulatory concentrations were observed in all participants	~11.8 pg/mL	42-65 % of baseline	acceptable safety profile	No clinically significant adverse events occurred	well tolerated	≥ 200 mg BID
